“Also recorded” adds a separate entry of the source. Each block holds one compound with its values, some of them ahead of it.
Key:
[1] = target: T1, TNFα convertase from HL60 cells (Homo sapiens, UniProt P24158); assay: 35S-labelled 26 kD TNFα in vitro transcription/translation autoradiographic convertase assay with HL60 convertase (P-30 fraction); type: biochemical; conditions: 30° C., 1 hour, SDS-PAGE autoradiography
T1 construct: solution containing convertase activity partially purified from uninduced HL60 cells; endogenous in cells
T1 sequence (P24158 28-248): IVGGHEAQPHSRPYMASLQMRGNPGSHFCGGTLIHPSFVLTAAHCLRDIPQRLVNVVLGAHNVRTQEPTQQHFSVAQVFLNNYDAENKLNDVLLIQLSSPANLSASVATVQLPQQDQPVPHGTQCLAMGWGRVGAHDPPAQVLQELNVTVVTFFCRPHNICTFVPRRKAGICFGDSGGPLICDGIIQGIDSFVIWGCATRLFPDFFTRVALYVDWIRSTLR
From the text: A preferred assay procedure consists of in vitro transcription/translation to produce the 26 kD molecule, followed by treatment with convertase in the presence or absence of compounds being tested for convertase inhibitory activity. The procedure entails in vitro transcription/translation of the TNFα cDNA present in the pGEM vector. Thus, the sequence was removed from pB11 by Pst I digestion and was inserted into the Pst I site of pGEM-3 (obtainable from Promega Biotec, Madison Wis.). The resulting plasmid, termed pGEM-TNFα14, was amplified in E. coli using established techniques, and plasmid DNA was prepared according to the procedure of Birnboim and Doly, described above. Plasmid DNA was transcribed in vitro by linearizing it with Hind III, and the linearized plasmid templates were used to prepare capped transcripts with T7 RNA polymerase and an in vitro transcription kit supplied by Promega Biotec (Madison, Wis.).
The mRNA produced above was translated in vitro in the presence of ^35S-cysteine to produce ^35S-cysteine-labelled 26 kD TNFα. A rabbit reticulocyte lysate translation kit was used, also supplied by Promega Biotec, and the conditions recommended by the manufacturer were followed.
^35S-cysteine-labelled 26 kD TNFα was used to assay for convertase inhibitors as follows. 25 μl of in vitro translated material was combined with 250 μl of solution containing convertase activity partially purified from uninduced HL60 cells, plus compounds to be assayed for inhibitory activity. The convertase was produced by harvesting 2×10^9 HL60 cells, disrupting the cells, and isolating S-1 (supernatant fluid from a 100,000 ×g centrifugation) and P-30 (pellet from a 30,000×g centrifugation) fractions totalling 18 and 6 ml, respectively. 250 μl of the P-30 fraction was used, although the S-1 fraction may also be used. The assay was carried out at 30° C. for 1 hour, essentially as described above. Next, the reaction mixture was immunoprecipitated with rabbit anti-human TNFα polyclonal antisera (produced from TNFα made in E. coli) and protein A Sepharose, pelleted and washed. […]

recombinant PR-3 (rPR-3) = target: T2, recombinant PR-3 (rPR-3) (Homo sapiens, UniProt P24158); assay: Residual recombinant PR-3 activity with Boc-Ala-ONp substrate; type: biochemical
T2 construct: made in house; host or cells: Sf9 insect cells (baculovirus, pAcC13preproPR-3)
T2 sequence (P24158 28-248 limits assumed): T1 sequence (P24158 28-248)
Procedure: Cytoplasmic anti-neutrophil cytoplasmic antibodies (c-ANCA) are human polyclonal antibodies derived from patients with Wegener's granulomatosis. […] Protein-A-purified human c-ANCA (supplied by Dr. Erik Hack, The Netherlands) was mixed with purified recombinant PR-3 (SEQ ID NO: 23) prepared as described above at various molar ratios of antibody to enzyme, and after incubation for 1 hour at 37° C., residual enzyme activity was measured using the Boc-Ala-ONp substrate as described in Example 4.
The two peptide diphosphonate inhibitors, Boc-Ala-Pro-Val-(OPh)2 and Boc-Val-Pro-Val-(OPh)2, were mixed at various concentrations with 125 ng of rPR-3 (prepared as described above) and incubated for 1 hour at 25° C. The residual enzyme activity was measured using the Boc-Ala-ONp substrate and compared to the same amount of enzyme incubated in the absence of inhibitor. Under these conditions, the Boc-Ala-Pro-Val-(OPh)2 inhibited PR-3 with an IC50 of about 10 μM and the Boc-Val-Pro-Val-(OPh)2 inhibited PR-3 with an IC50 of about 0.4 μM. […] Thus, recombinant PR-3 may be employed in detection of useful inhibitors of native PR-3.

PR-3 = target: T3, PR-3 (Homo sapiens, UniProt P24158); assay: Inhibition of PR-3, summary statement of the assays shown below; type: biochemical
T3 sequence (P24158 28-248): T1 sequence (P24158 28-248)
From the text: As shown below, PR-3 is inhibited by peptide diphenyl phosphonate inhibitors, elastinal, and dichloro-isocoumarin (DCI). The peptide diphenyl phosphonate inhibitors include Boc-Val-Pro-Val-p(OPh)2 and Boc-Ala-Pro-Val-p(OPh)2 (BOC-butoxycarbonyl). […] “Boc” means N-tert-butoxycarbonyl and “p(OPh)2” represents the diphenyl phosphonate moiety, wherein the formula—COOH group is replaced with P(=0)-(O-phenyl)2. See Oleksyszyn et al., Biochem 30:485 (1991). It will be appreciated that other peptide diphenyl phosphonate molecules may inhibit PR-3. Potential inhibitors may be constructed using the procedures shown in Oleksyszyn et al., supra, using small aliphatic peptides, for an example. Once the potential inhibitors are made, they may be tested in the assays shown below.

[2] = target: T4, TNFα convertase/PR-3 (purified native PR-3) (Homo sapiens, UniProt P24158); assay: Colorimetric Boc-Ala-ONp assay for convertase inhibition; type: biochemical; conditions: for inhibition of TNFα convertase/PR-3 activity: 35 μM
T4 construct: from tissue; host or cells: human blood neutrophils
T4 sequence (P24158 28-248): T1 sequence (P24158 28-248)
Procedure: TNFα convertase inhibition can also be measured by a colorimetric assay. In this type of assay, the actual activity of TNFα convertase is measured directly using a colorimetric TNFα convertase substrate. […] One such substrate is Boc-Ala-ONp (Bachem Bioscience, Inc., Philadelphia, Pa.). Other potentially useful substrates can be predicted from the structure of TNFα convertase and other serine proteases. Although the example herein uses purified native PR-3 as the TNFα convertase, it is contemplated that recombinant PR-3 or other TNFα convertases can be used in this assay as well.
Peptide diphenyl phosphonate inhibitors were synthesized and stored as lyophilized solids as described in Oleksyszyn and Powers, Biochem 30:485-493 (1991). Inhibitor solutions (10 mg/ml) were prepared in 100% dimethyl sulfoxide (DMSO) and diluted into aqueous buffers upon initiation of the experiments. 3,4, dichloro-isocoumarin was purchased from CalBiochem. Purified PR-3 (10 μl, 0.1 mg/ml) was mixed with varying concentrations of protease inhibitor ([…]) in 20 mM sodium phosphate buffer, pH 7.0, containing 0.1 M sodium chloride. Aliquots (40 μl) were removed at selected times and diluted 1/10 into a colorimetric assay for convertase, containing 0.5-1 mM Boc-Ala-ONp (prepared fresh from a 50 mM stock in 100% methanol) in 0.02 M sodium phosphate buffer, pH 7.0, 0.1 M sodium chloride. The increase in absorbance was monitored at 347 nm on a Hewlett Packard 8450A spectrophotometer, and using an extinction coefficient of 5.5×10^3 M^−1cm^−1 to calculate units of enzyme activity.
The peptide diphenyl phosphonates were tested in the colorimetric assay described in Example 3, for inhibition of TNFα convertase/PR-3 activity.

mice = assay: Toxicity of DCI/oil injected into mice; type: in vivo, mouse; conditions: injection of DCI/oil into mice
From the text: (§1) This represented a maximal tolerated dose of DCI that could be administered.

[3] = target: T5, purified native PR-3 from human neutrophils (Homo sapiens, UniProt P24158); assay: 35S-labelled 26 kD TNFα autoradiographic convertase assay with purified native PR-3; type: biochemical; conditions: 45 μM; PR-3 0.3 μg/ml preincubated 30 minutes
T5 construct: from tissue; host or cells: human blood neutrophils
T5 sequence (P24158 28-248): T1 sequence (P24158 28-248)
Procedure: ^35S-cysteine-labelled 26 kD TNFα was used to assay for convertase inhibitors as follows. 25 μl of in vitro translated material was combined with 250 μl of solution containing convertase activity partially purified from uninduced HL60 cells, plus compounds to be assayed for inhibitory activity. The convertase was produced by harvesting 2×10^9 HL60 cells, disrupting the cells, and isolating S-1 (supernatant fluid from a 100,000 ×g centrifugation) and P-30 (pellet from a 30,000×g centrifugation) fractions totalling 18 and 6 ml, respectively. 250 μl of the P-30 fraction was used, although the S-1 fraction may also be used. The assay was carried out at 30° C. for 1 hour, essentially as described above. Next, the reaction mixture was immunoprecipitated with rabbit anti-human TNFα polyclonal antisera (produced from TNFα made in E. coli) and protein A Sepharose, pelleted and washed. The bound protein was eluted and electrophoresed using SDS-PAGE. The gel was fixed in 40% methanol, 10% acetic acid, soaked in Enlightening (Dupont), dried, and exposed to X-ray film which was subsequently developed.
The above assay was also used with purified native PR-3 from human neutrophils to test a variety of proteinase inhibitors for their ability to inhibit TNFα convertase activity, as shown in FIG. 5. Purified PR-3 (0.3 μg/ml) was preincubated for 30 minutes with the following inhibitors prior to addition of ^35S-labelled 26 kD-TNFα, and then assayed as described above: DCI (45 μM), α-2-macroglobulin (1 mg/ml), PMSF (20 μM), leupeptin (2 μg/ml), EDTA (10 mM), or pepstatin (2 μg/ml).

serum IL-6 = assay: Serum IL-6 in mice injected with a lethal dose of LPS; type: in vivo, mouse; conditions: DCI injected 1 hour before lethal LPS dose
From the text: (§2) The kinetics of induction TNFα and IL-6 in mice injected with a lethal dose of LPS was studied. […] Also, there was a delayed increase in TNFα measured up to the 6-hour time point. This was true for both immunoreactive mouse TNFα measured by ELISA and bioactive YNFα measured by lysis of L929 cells. IL-6 levels were not reduced by this therapy.

[4] = Stability and formulation studies in corn oil; type: physicochemical; conditions: dissolved in corn oil
From the text: as §1

mice injected with LPS = assay: Survival of mice injected with a lethal dose of LPS; type: in vivo, mouse
Procedure: The effect of DCI on survival of mice injected with a dose of LPS that results in 100% death of animals by 24 hours was also investigated.

[5] = system: IL-6 release from mouse macrophages; assay: LPS-induced IL-6 secretion by adherent peritoneal macrophages (B9 bioassay); type: cell-based
Procedure: (§3) Release of TNFα by macrophages after stimulation by LPS is a major source of TNFα in the host. In these studies peritoneal macrophages were purified by adhesion, cultured in 24 well plates, and LPS was added to induce secretion of TNFα. […] DCI was then added in dimethyl sulfoxide vehicle to cultures. The control cultures had DMSO alone added in equivalent concentrations. Supernatants were collected and assayed for TNFα and IL-6. […] [table]

[6] = system: TNFα release from mouse macrophages; assay: LPS-induced TNFα secretion by adherent peritoneal macrophages (ELISA); type: cell-based
Procedure: as §3

serum TNFα = assay: Serum TNFα in mice injected with a lethal dose of LPS; type: in vivo, mouse; conditions: DCI injected 1 hour before lethal LPS dose; ELISA and L929 lysis
From the text: as §2

[7] = LPS-stimulated peritoneal macrophages, versus DMSO vehicle

Compound: CO[C@@H]1C(=O)N2C(C(=O)N3CCOCC3)=C(COC(C)=O)CS(=O)(=O)[C@H]12 (relative stereo) [(1-((3-((acetyloxyl)-7-methoxy-8-oxy-8-oxo-5-thio-1-azabicyclo [4.2.0]oct-2-en-2-yl)carbonyl)morpholine, S, S-dioxide, (6R-cis)]
inhibition of convertase activity (conversion of 26 kD TNFα) ([1]; 1 mM): inhibits convertase activity

Compound: CC(C)C(NC(=O)[C@@H]1CCCN1C(=O)[C@H](C)NC(=O)OC(C)(C)C)P(=O)(Oc1ccccc1)Oc1ccccc1 (stereo partly drawn) [APV, Boc-Ala-Pro-Val-p(OPh)2]
IC50 (recombinant PR-3 (rPR-3)): ~10 µM
inhibition of PR-3 (PR-3): inhibited
inhibition of TNFα convertase/PR-3 activity [2]: demonstrated inhibitory activity

Compound: O=c1oc(Cl)c(Cl)c2ccccc12 [DCI, 3,4 dichloroisocoumarin]
LD 50% (mice): 1 mg/mL
inhibition of TNFα convertase activity of purified PR-3 [3]: significant inhibitory activity
IL-6 levels (serum IL-6): not reduced
stability [4]: stable and retained serine protease inhibitor activity
dose response of survival effect (mice injected with LPS; 0.75 mg of DCI compared with 0.5 mg): more effective than 0.5 mg
survival (mice injected with LPS; prophylactic DCI, LPS dose giving 100% death by 24 hours): prolong survival
inhibition of the convertase (conversion of 26 kD TNFα) ([1]; 100 pg/ml): inhibit the convertase
IL-6 ([5]; DCI 20 μg/ml, macrophages 10^6/ml with LPS, 3 hours, B9 bioassay): 189 pg/mL
IL-6 response [5, 7]: not significantly altered
inhibition of PR-3 (PR-3): inhibited
TNFα ([6]; DCI 20 μg/ml, macrophages 10^6/ml with LPS, 3 hours, ELISA): 0.05 ng/mL
TNFα secretion [6, 7]: markedly suppressed
inhibition at 95 µM ([2]; 95 μM): 100%
serum TNFα (serum TNFα): marked inhibition; also recorded: decreased

Results, then the compound that gave them:

inhibition of PR-3 (PR-3): much less inhibitory activity
inhibition of TNFα convertase/PR-3 activity [2]: marginal, if any inhibition
Compound: CC(NC(=O)OC(C)(C)C)C(=O)NC(CCC(N)=O)C(=O)NC(C)P(=O)(Oc1ccccc1)Oc1ccccc1 (stereo not drawn) [AQA, Boc-Ala-Gln-Ala-p(OPh)2]

inhibition of PR-3 (PR-3): much less inhibitory activity
inhibition of TNFα convertase/PR-3 activity [2]: marginal, if any inhibition
Compound: CC(C)CC(NC(=O)OC(C)(C)C)C(=O)NC(C)C(=O)NC(CCC(N)=O)C(=O)NC(C)P(=O)(Oc1ccccc1)Oc1ccccc1 (stereo not drawn) [LAQA, Boc-Leu-Ala-Gln-Ala-p(OPh)2]

— patent publication US6599706B1, “Recombinant PR-3 and assays employing the same” (Chiron Corporation, priority 1994, dated 2003)
